This is an account of results in ChEMBL document CHEMBL1201862, “PubChem BioAssay data set” (2004).

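The compound was tested at five concentrations on cells cultured in 96-well plates, with a 48-hour exposure period. GI50: concentration for 50% inhibition of growth.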 Active and inactive are the calls of the source. No stated cut-off is given here; in the data, active = GI50 up to about 1.1 µM and inactive = higher. Some results are limits rather than exact numbers.

Among the test systems are HCT-15; MOLT-4; IGROV-1; HOP-92; SK-OV-3; SK-MEL-2; SNB-75; UO-31; U-251; SK-MEL-28; RXF 393; UACC-62; NCI-H23; CCRF-CEM; SK-MEL-5; K562; SF-539; OVCAR-8; NCI-H460; HOP-62.
Common to all, as to assay: NCI tumour cell line growth inhibition, 48 h

On to `CCCC(O)C(NC(=O)CCl)C(=O)O` (stereo not given), for which the GI50 in the assay with HCT-15 was above 100 µM; with MOLT-4 it was > 100 µM (inactive); with IGROV-1 it was > 100 µM (inactive); in the assay with HOP-92, > 100 µM (inactive); in the assay on SK-OV-3 it was > 100 µM (inactive); with SK-MEL-2 it was > 100 µM (inactive). Moreover, the GI50 in the assay on SNB-75, in the assay on UO-31, in the assay on U-251, with SK-MEL-28, with RXF 393 and in the assay on UACC-62 was > 100 µM (inactive) throughout. The GI50 in the assay on NCI-H23, with CCRF-CEM, in the assay on SK-MEL-5, in the assay with K562, with SF-539 and in the assay on OVCAR-8 was > 100 µM (inactive) each time. For the same compound, the GI50 in the assay with NCI-H460 and in the assay on HOP-62 was > 100 µM (inactive) in each case.

As for `CSCCC(NC(=O)C(Cc1ccccc1)NC(=O)CNC(=O)CNC(=O)C(N)Cc1ccc(O)cc1)C(=O)O` (stereo not given), the GI50 in the assay on HCT-15 was above 100 µM; in the assay with MOLT-4 it was > 100 µM (inactive); with IGROV-1 it was > 100 µM (inactive); in the assay with HOP-92, > 100 µM (inactive); in the assay on SK-OV-3, > 100 µM (inactive); with SK-MEL-2, > 100 µM (inactive). Also, the GI50 in the assay on SNB-75 is > 90.2 µM (inactive); in the assay with UO-31, > 100 µM (inactive); in the assay with U-251, > 100 µM (inactive); with SK-MEL-28, > 100 µM (inactive); with RXF 393, > 100 µM (inactive); in the assay with UACC-62 it was > 100 µM (inactive). Also, the GI50 in the assay with NCI-H23, in the assay on CCRF-CEM, with SK-MEL-5, with K562, in the assay on SF-539 and in the assay with OVCAR-8 was > 100 µM (inactive) throughout. For the same compound, the GI50 in the assay on NCI-H460 and in the assay with HOP-62 was > 100 µM (inactive) each time.

As for `CN1CCOC(c2ccc(Cl)cc2)O1` (stereo not given), the GI50 with HCT-15 was above 100 µM; in the assay with MOLT-4 it was > 100 µM (inactive); in the assay with IGROV-1, > 100 µM (inactive); with HOP-92, > 100 µM (inactive); with SK-OV-3, > 100 µM (inactive); in the assay with SK-MEL-2, > 100 µM (inactive). The GI50 in the assay with SNB-75, with UO-31, in the assay with U-251, with SK-MEL-28, with RXF 393 and with UACC-62 was > 100 µM (inactive) each time. For the same compound, the GI50 with NCI-H23, in the assay on CCRF-CEM, with SK-MEL-5, with K562, with SF-539 and in the assay with OVCAR-8 was > 100 µM (inactive) throughout. In addition, the GI50 in the assay on NCI-H460 and with HOP-62 was > 100 µM (inactive) each time.

As to `CC(=O)Nc1cccc(/N=N/N(C)C)c1`, the GI50 in the assay on HCT-15 was above 100 µM; in the assay with MOLT-4 it was > 100 µM (inactive); with IGROV-1, > 100 µM (inactive); in the assay on HOP-92, > 100 µM (inactive); in the assay with SK-OV-3, > 100 µM (inactive); in the assay with SK-MEL-2, > 100 µM (inactive). For the same compound, the GI50 with SNB-75 is > 49.3 µM (inactive); in the assay with UO-31 it was > 100 µM (inactive); with U-251, > 100 µM (inactive); in the assay on SK-MEL-28 it was > 95.3 µM (inactive); with RXF 393 it was > 100 µM (inactive); in the assay on UACC-62, > 100 µM (inactive). The GI50 with NCI-H23 was > 100 µM (inactive); in the assay on CCRF-CEM, > 100 µM (inactive); with SK-MEL-5 it was > 100 µM (inactive); in the assay with K562, 98.4 µM (inactive); with SF-539 it was > 100 µM (inactive); in the assay with OVCAR-8, > 100 µM (inactive). The GI50 in the assay with NCI-H460 and in the assay on HOP-62 was > 100 µM (inactive) in each case.

As for `Cc1ccc(C(C)(C)C[P+](C)(c2ccccc2)c2ccccc2)cc1`, the GI50 in the assay on HCT-15 was 99.3 µM; in the assay on MOLT-4, 11 µM (inactive); with IGROV-1, 5.28 µM (inactive); in the assay on HOP-92 it was 1.97 µM (inactive); with SK-OV-3, 22.1 µM (inactive); in the assay with SK-MEL-2 it was 4.21 µM (inactive). In addition, the GI50 in the assay with SNB-75 is 8.18 µM (inactive); in the assay on UO-31, 20.8 µM (inactive); in the assay on U-251, 11.6 µM (inactive); in the assay with SK-MEL-28, 8.51 µM (inactive); with RXF 393, 27.5 µM (inactive); with UACC-62, 5.38 µM (inactive). The GI50 with NCI-H23 is 11.7 µM (inactive); with CCRF-CEM, 9.08 µM (inactive); with SK-MEL-5, 3.42 µM (inactive); in the assay with K562, 5 µM (inactive); in the assay on SF-539, 28 µM (inactive); in the assay with OVCAR-8, 12.7 µM (inactive). Moreover, the GI50 in the assay with NCI-H460 was 14 µM (inactive); with HOP-62 it was 18.4 µM (inactive).
